Assay results reported in ChEMBL document CHEMBL1201862, “PubChem BioAssay data set” (2004).
The source made the active and inactive calls.

What was measured:
Insulin-degrading enzyme [1] = molecular target: T1, Insulin-degrading enzyme (Homo sapiens, UniProt P14735); assay: activators of recombinant IDE enzyme, dose response, counter-screen for IDE activator project, biochemical, fluorescence polarization (AID 588681)
cells [2] = assay type: functional, cell-based
HEK293 [3] = assay: optical interference in Abeta FP readout, dose response, artefact control for IDE activator project, biochemical, fluorescence polarization (AID 588442); assay type: functional, cell-based; conditions: Homo sapiens
Insulin-degrading enzyme [4] = molecular target: T1, Insulin-degrading enzyme; assay: activators of endogenous IDE in HEK cells, dose response, cell-based, fluorescence polarization (AID 588439); assay type: functional
HEK293 [5] = assay: HEK cell cytotoxicity by LDH release, dose response, cytotoxicity control for IDE activator project, fluorescence, HEK cells (AID 588440); assay type: functional, cell-based; conditions: Homo sapiens;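 note: cytotoxicity by LDH release measuring loss of membrane integrity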
cells [6] = assay type: functional, cell-based; remark: listed apart in the source
NIH3T3 = assay: mammalian cell toxicity in NIH-3T3 fibroblasts, dose response, cytotoxicity control for antifungal resistance reversal project, Alamar Blue, dry powder, set 2 (AID 488911); assay type: functional, cell-based; conditions: Mus musculus
[7] = molecular target: T2, Sentrin-specific protease 7 (Homo sapiens, UniProt Q9BQF6); assay: SENP7 protease inhibitors, SAR follow-up, biochemical, luminescence (AID 504497); assay type: functional
T2 sequence (Q9BQF6 whole entry): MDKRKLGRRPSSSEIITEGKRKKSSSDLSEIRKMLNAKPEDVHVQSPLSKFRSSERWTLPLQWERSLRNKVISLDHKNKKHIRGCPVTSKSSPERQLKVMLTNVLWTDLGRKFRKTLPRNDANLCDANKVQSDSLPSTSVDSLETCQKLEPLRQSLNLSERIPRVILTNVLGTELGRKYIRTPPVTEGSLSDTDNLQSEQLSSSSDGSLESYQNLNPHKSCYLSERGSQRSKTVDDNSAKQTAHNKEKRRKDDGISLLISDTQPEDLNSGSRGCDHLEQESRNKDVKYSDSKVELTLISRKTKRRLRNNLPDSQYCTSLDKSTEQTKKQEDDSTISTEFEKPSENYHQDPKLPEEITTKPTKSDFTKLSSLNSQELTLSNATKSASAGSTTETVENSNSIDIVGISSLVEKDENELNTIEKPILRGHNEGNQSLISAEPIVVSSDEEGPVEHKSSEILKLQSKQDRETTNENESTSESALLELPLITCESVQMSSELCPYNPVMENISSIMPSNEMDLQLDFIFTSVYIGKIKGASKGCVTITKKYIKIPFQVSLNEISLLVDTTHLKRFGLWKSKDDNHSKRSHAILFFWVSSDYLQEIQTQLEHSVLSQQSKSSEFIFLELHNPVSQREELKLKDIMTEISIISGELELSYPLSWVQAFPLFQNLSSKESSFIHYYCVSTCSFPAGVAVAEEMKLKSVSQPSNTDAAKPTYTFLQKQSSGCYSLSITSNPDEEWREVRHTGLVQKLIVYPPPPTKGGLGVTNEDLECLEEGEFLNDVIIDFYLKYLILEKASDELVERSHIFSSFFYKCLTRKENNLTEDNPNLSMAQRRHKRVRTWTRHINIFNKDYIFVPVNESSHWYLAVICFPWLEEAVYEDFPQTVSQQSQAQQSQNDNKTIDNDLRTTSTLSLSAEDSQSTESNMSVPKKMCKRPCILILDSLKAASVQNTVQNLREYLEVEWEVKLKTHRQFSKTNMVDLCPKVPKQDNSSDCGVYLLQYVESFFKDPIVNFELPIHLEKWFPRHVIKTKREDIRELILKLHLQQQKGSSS

[8] = molecular target: T3, Sentrin-specific protease 6 (Homo sapiens, UniProt Q9GZR1); assay: SAR Analysis of small molecule inhibitors of Sentrin-specific protease 6 (SENP6) using a Luminescent assay. [Related pubchem assays (depositor defined):AID2582, AID2599]; assay type: functional
T3 sequence (Q9GZR1 whole entry): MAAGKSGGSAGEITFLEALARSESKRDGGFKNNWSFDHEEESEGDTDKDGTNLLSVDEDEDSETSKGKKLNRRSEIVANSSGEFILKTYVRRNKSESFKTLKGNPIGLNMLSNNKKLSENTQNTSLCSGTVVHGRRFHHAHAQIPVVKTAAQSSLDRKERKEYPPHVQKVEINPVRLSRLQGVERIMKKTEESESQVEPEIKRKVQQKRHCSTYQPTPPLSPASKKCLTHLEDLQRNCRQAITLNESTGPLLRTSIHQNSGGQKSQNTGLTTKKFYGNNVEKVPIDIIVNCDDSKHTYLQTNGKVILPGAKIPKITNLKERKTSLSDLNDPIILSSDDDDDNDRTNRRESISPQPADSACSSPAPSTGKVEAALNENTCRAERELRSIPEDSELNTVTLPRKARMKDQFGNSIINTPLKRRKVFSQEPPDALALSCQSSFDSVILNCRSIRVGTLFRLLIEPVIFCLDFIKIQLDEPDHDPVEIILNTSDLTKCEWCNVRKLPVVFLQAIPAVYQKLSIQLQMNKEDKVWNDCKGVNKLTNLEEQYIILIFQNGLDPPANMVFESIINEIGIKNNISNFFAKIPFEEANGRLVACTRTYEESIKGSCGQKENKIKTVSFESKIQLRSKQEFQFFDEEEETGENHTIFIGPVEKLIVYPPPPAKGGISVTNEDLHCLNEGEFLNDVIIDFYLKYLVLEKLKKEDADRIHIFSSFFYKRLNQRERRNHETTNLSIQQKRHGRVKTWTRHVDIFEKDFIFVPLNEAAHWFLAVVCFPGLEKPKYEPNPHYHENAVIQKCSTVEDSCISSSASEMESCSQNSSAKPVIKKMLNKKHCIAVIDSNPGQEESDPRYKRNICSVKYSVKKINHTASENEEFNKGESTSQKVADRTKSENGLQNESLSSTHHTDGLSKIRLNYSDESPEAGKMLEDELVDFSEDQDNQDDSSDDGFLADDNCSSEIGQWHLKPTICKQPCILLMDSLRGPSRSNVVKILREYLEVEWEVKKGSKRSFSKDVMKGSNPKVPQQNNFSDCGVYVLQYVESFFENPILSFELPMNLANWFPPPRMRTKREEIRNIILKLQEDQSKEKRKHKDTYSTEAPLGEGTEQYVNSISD

[9] = molecular target: T4, Sentrin-specific protease 8 (Homo sapiens, UniProt Q96LD8); assay: SENP8 protease inhibitors, SAR follow-up, biochemical, luminescence (AID 504501); assay type: functional
T4 sequence (Q96LD8 whole entry): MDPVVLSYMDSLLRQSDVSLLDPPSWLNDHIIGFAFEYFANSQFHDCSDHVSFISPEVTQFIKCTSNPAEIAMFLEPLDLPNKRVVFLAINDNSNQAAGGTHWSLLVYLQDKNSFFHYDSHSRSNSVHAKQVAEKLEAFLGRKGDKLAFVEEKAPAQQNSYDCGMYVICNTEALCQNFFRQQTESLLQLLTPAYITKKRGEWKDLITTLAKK

Caspase-3 = molecular target: T5, Caspase-3 (Homo sapiens, UniProt P42574); assay: SAR Analysis of small molecule inhibitors of Sentrin-specific proteases (SENPs) using a Caspase-3 Selectivity assay. [Related pubchem assays (depositor defined):AID2540, AID2599, AID434973, AID489001]; assay type: functional
T5 sequence (P42574 whole entry): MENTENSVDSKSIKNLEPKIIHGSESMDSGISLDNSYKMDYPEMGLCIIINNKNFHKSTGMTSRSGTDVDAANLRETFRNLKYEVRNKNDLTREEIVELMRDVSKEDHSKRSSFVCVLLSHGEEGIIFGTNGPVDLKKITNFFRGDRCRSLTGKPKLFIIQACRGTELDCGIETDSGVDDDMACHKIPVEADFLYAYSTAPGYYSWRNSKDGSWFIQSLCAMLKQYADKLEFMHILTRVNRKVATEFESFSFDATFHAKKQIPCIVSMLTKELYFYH

[10] = cytotoxicity toward NIH3T3 fibroblasts, dose response, counter-screen, cell-based, ATP luminescence, mouse fibroblasts (AID 2010); assay type: functional;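 note: cells exposed to compound for about 90 hours before reading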
[11] = inhibitors of intracellular T. cruzi replication, confirmation, NIH3T3 host cells, beta-gal luminescence (AID 2044); assay type: functional, cell-based;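 note: intracellular parasites grown in NIH/3T3 mouse fibroblasts as host cells; luminescent beta-galactosidase reporter signal from transgenic T. cruzi replicating inside host cells; inhibitors lower the luminescence signal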
[12] = nonselective inhibitors of cellular cAMP signaling, dose response, counter-screen for MC4R biased antagonist project, cell-based, TR-FRET cAMP detection (AID 602305); assay type: functional;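 note: U2OS cells stimulated with forskolin near its EC80 as the cAMP inducer; potency is for inhibition of forskolin-stimulated cAMP signaling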
Melanocortin receptor 4 = Melanocortin receptor 4 (Homo sapiens, UniProt P32245); assay: MC4R antagonist potency on cAMP, dose response, cell-based, TR-FRET, biased antagonists (AID 602298); assay type: functional;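 note: antagonist potency against agonist-stimulated cAMP production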
[13] = molecular target: Multidrug resistance protein CDR1 (Candida albicans, UniProt P43071); assay: CaCDR1 efflux pump inhibitors in yeast, dose response, S. cerevisiae AD1-8u, singleplex, Cherry Pick1 hits (AID 588606); assay type: functional
[14] = molecular target: Vascular endothelial growth factor receptor 1 (Homo sapiens, UniProt P17948); assay type: functional;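 note: measured within a kinome-wide profiling panel, FLT1 as the panel member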
[15] = molecular target: Cyclin-dependent kinase 19 (Homo sapiens, UniProt Q9BWU1); assay: Navigating the Kinome. Panel member name: CDC2L6; assay type: functional
[16] = molecular target: Dual specificity tyrosine-phosphorylation-regulated kinase 1B (Homo sapiens, UniProt Q9Y463); assay: Navigating the Kinome. Panel member name: DYRK1B; assay type: functional
[17] = molecular target: Tyrosine-protein kinase receptor TYRO3 (Homo sapiens, UniProt Q06418); assay type: functional;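 note: TYRO3 value obtained as one member of a kinome-wide profiling panel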
Tyrosine-protein kinase receptor TYRO3, sequence (Q06418 whole entry): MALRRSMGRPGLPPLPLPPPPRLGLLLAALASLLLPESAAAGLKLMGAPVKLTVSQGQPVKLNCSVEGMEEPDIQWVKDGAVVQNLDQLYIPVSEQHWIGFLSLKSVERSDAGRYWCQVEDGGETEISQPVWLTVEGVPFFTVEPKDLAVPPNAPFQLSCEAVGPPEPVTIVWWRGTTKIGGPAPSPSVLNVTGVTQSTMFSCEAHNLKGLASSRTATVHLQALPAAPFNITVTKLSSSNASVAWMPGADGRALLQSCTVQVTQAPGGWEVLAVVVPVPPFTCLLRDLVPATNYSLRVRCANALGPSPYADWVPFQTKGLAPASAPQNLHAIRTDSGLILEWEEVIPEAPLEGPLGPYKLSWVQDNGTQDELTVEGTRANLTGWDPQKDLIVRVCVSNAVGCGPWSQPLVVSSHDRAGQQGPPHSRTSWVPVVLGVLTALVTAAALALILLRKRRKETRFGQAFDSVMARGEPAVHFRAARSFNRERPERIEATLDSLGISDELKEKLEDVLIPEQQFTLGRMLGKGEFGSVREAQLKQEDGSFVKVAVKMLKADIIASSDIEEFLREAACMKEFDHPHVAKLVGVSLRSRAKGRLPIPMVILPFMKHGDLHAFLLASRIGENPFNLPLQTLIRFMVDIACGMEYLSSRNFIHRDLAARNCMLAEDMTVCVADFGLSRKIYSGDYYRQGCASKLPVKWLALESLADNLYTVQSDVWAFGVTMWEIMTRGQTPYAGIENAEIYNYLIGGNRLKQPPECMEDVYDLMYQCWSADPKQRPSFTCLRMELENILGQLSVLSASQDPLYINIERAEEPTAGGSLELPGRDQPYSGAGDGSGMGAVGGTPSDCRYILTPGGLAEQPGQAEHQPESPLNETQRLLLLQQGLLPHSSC

[18] = Vero cell cytotoxicity, dose response, cytotoxicity control for M. tuberculosis growth inhibitor project, Vero cells, purified and synthesized compounds, set 5 (AID 504909); assay type: functional; conditions: Mycobacterium tuberculosis
[19] = A Cell Based Secondary Assay to Explore Cytotoxicity in THP-1 Cells of Compounds that Modulate Mycobacterium tuberculosis in Media Containing Glycerol versus Media without Glycerol (2).; assay type: functional
[20] = Vero cell cytotoxicity, cytotoxicity control for M. tuberculosis inhibitor project, purified and synthesized samples, set 3 (AID 504684); assay type: functional
[21] = A Cell Based Secondary Assay to Explore Cytotoxicity in HepG2 Cells of Compounds that Modulate Mycobacterium tuberculosis in Media Containing Glycerol versus Media without Glycerol (2).; assay type: functional
[22] = Vero cell cytotoxicity, dose response, cytotoxicity control for M. tuberculosis growth inhibitor project, Vero cells, purified and synthesized compounds, set 4 (AID 504854); assay type: functional; conditions: Mycobacterium tuberculosis
[23] = THP-1 cell cytotoxicity, dose response, cytotoxicity control, set 3 (AID 504852); assay type: functional; conditions: Mycobacterium tuberculosis
[24] = THP-1 cell cytotoxicity, cytotoxicity control, set 4 (AID 504911); assay type: functional; conditions: Mycobacterium tuberculosis
[25] = molecular target: Protein disulfide-isomerase (Homo sapiens, UniProt P07237); assay: PDI inhibitors, insulin aggregation turbidity, dose response, biochemical, absorbance, cherry-picked samples (AID 602350); assay type: functional
Protein disulfide-isomerase, sequence (P07237 whole entry): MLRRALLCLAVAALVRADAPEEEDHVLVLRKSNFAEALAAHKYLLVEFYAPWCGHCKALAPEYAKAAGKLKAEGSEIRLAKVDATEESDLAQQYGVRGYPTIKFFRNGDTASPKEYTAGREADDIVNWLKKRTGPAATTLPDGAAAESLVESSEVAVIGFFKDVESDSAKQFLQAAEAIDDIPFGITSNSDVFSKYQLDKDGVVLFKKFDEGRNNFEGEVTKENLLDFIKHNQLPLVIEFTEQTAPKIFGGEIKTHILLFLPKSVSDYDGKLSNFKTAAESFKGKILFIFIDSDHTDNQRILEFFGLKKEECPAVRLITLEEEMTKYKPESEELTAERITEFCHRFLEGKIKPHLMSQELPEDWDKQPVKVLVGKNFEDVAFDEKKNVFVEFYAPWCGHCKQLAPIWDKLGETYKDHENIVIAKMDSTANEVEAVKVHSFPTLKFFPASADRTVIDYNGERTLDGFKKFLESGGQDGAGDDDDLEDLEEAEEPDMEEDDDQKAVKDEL

[26] = molecular target: Melanin-concentrating hormone receptor 1 (Homo sapiens, UniProt Q99705); assay: Late-stage fluorescence-based counterscreen for antagonists of the G-protein coupled receptor 7 (GPR7): cell-based dose response assay to identify antagonists of the melanin-concentrating hormone receptor 1 (MCHR1) Set 5.; assay type: functional
Melanin-concentrating hormone receptor 1, sequence (Q99705 whole entry): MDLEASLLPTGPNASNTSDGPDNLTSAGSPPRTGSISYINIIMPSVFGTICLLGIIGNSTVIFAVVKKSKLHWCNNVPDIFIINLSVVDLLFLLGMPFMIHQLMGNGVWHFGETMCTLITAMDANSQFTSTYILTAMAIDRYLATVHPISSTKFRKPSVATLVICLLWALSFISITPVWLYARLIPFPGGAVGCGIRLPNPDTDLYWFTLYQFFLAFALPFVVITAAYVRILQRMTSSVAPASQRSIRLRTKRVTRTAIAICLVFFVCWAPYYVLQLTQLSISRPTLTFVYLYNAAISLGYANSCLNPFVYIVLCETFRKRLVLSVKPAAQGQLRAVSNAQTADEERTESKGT

[27] = molecular target: Neuropeptides B/W receptor type 1 (Homo sapiens, UniProt P48145); assay: GPR7 antagonist potency, late-stage follow-up, cell-based, fluorescence, dose response, set 5 (AID 588566); assay type: functional
[28] = molecular target: Dual specificity protein kinase CLK4 (Homo sapiens, UniProt Q9HAZ1); assay type: functional
Dual specificity protein kinase CLK4, sequence (Q9HAZ1 whole entry): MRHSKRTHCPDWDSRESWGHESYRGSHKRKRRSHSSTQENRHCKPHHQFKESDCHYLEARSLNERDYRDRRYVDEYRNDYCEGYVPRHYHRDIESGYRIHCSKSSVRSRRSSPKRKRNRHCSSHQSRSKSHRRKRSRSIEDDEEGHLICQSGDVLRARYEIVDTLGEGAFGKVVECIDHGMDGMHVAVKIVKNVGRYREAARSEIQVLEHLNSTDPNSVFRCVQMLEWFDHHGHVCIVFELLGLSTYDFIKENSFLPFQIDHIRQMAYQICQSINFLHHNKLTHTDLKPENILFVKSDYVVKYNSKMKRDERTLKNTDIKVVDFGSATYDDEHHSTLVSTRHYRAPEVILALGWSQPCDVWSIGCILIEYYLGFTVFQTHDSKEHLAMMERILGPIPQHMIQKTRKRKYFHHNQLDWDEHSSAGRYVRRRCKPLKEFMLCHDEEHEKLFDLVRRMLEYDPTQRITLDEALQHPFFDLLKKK

[29] = molecular target: Cyclin-dependent kinase 8 (Homo sapiens, UniProt P49336); assay: Navigating the Kinome. Panel member name: CDK8; assay type: functional
Aurora kinase B = Aurora kinase B (Homo sapiens, UniProt Q96GD4); assay type: functional
[30] = molecular target: Vascular endothelial growth factor receptor 2 (Homo sapiens, UniProt P35968); assay type: functional
Vascular endothelial growth factor receptor 2, sequence (P35968 whole entry): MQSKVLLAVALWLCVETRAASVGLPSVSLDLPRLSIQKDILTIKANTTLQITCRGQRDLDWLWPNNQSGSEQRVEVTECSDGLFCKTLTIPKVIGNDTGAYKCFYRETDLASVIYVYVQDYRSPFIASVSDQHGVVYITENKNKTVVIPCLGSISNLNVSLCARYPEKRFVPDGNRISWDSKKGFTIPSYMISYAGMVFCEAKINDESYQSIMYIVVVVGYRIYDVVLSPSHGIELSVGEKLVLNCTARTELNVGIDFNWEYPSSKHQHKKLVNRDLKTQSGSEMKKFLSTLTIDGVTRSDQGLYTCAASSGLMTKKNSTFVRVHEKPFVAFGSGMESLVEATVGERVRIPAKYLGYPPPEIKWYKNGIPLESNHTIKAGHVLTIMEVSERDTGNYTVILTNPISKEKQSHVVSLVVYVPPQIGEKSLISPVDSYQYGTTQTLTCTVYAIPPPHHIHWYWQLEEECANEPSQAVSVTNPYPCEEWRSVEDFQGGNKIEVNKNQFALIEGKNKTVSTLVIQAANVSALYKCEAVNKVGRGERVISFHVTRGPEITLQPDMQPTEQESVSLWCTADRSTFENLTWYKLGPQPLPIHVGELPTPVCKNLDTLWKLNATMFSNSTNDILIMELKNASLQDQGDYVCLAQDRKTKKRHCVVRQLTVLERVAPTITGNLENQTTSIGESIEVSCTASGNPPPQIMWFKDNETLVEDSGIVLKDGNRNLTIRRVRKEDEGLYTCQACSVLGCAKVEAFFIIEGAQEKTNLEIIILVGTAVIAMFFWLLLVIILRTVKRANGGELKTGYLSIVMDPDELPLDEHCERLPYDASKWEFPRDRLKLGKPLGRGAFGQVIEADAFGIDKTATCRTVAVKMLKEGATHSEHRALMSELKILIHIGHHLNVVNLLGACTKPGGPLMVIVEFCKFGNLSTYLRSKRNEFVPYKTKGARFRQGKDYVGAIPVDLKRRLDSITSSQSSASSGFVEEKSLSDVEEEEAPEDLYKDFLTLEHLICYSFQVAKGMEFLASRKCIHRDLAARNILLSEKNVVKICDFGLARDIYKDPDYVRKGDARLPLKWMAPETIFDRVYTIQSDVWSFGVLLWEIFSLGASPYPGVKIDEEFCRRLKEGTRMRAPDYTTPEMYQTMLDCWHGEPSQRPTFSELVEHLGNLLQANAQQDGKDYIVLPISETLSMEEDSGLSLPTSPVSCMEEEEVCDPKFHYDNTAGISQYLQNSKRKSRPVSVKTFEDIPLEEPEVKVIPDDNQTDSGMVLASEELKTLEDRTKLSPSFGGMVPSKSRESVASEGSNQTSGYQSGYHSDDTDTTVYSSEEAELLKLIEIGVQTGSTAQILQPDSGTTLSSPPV

Aurora kinase A = Aurora kinase A (Homo sapiens, UniProt O14965); assay type: functional;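 note: value from the Navigating the Kinome kinase panel profiling, panel entry STK6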
Aurora kinase A, sequence (O14965 whole entry): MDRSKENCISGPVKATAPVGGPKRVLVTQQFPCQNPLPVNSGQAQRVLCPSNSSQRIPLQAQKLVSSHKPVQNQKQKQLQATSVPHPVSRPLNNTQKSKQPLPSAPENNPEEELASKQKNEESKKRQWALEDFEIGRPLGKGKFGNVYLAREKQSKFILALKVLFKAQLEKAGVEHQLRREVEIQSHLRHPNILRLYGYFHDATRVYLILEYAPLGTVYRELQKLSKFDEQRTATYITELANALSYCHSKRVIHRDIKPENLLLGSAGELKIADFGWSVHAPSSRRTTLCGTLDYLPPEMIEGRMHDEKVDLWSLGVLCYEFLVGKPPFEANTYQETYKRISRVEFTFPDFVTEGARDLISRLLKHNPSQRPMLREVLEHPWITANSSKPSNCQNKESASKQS

T1 sequence (P14735 whole entry): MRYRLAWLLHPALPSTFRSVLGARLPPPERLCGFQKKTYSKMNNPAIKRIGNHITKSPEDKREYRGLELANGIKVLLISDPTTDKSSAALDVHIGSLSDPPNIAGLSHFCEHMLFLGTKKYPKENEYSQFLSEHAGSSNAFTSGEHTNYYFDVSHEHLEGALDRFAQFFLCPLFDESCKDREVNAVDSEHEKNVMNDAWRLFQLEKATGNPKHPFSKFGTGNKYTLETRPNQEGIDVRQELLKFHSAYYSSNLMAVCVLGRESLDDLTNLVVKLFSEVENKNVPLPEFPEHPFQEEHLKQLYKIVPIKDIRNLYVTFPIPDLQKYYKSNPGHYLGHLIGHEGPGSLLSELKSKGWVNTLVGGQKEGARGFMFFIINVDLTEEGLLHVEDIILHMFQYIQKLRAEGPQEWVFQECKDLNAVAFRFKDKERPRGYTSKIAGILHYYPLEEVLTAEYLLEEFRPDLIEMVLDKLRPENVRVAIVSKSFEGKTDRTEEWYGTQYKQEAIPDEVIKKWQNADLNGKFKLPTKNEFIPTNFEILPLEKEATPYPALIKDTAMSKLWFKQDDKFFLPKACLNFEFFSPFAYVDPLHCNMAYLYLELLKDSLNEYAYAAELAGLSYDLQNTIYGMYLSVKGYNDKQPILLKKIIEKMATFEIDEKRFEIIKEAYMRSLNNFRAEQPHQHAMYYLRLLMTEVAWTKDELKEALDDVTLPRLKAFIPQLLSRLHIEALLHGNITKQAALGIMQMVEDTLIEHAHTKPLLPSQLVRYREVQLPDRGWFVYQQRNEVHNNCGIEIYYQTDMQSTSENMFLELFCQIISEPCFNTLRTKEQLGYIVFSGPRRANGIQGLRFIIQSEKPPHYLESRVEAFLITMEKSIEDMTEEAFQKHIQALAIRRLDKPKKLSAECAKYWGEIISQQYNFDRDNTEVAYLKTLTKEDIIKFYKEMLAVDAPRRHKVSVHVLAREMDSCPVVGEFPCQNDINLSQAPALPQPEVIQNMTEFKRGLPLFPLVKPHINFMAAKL

SMILES: COc1ccc(NC(=O)C2CCN(S(=O)(=O)c3ccc4c(c3)CC(C)N4C(C)=O)CC2)cc1OC (stereo not given)
- EC50 (Insulin-degrading enzyme [1]): > 54.7 µM (inactive)
- EC50 (cells [2]): > 350 µM (not active)
- EC50 (HEK293 [3]): > 54.7 µM (inactive)
- EC50 (Insulin-degrading enzyme [4]): > 54.7 µM (inactive)
- IC50 (HEK293 [5]): > 89.2 µM (inactive)
- EC50 (cells [6]): > 350 µM (not active)

SMILES: O=C(O)Cn1nc(-c2ccccc2)c2ccccc21
- AC50 (NIH3T3): > 260 µM (inactive)

SMILES: CCC(C)(C)c1ccc2c(c1)C(=O)c1ccccc1C2=O
- IC50 [7]: 1.31 µM (active)
- IC50 [8]: 2.05 µM (active)
- IC50 [9]: 2.38 µM (active)
- IC50 (Caspase-3): 2.88 µM (active)

SMILES: N#Cc1c(N2CCN(C(=O)c3ccco3)CC2)nc(-c2ccccc2)c2c1CCCC2
- EC50 [10]: > 60 µM (not active)
- EC50 [11]: 2.31 µM (active)
- IC50 [12]: > 64.6 µM (inactive)
- IC50 (Melanocortin receptor 4): > 64.6 µM (inactive)

SMILES: CCSc1cc(N2CCOCC2)nc(-c2ccccc2)n1
- EC50 [13]: 0.016 µM (active)

SMILES: Cc1ccc(F)c(NC(=O)Nc2ccc(-c3coc4c(-c5cccnc5)cnc(N)c34)cc2)c1
- Ki [14]: 0.000251 µM (active)
- Ki [15]: > 100 µM (inactive)

SMILES: O=C1NC(=S)N(c2ccccc2)C1=O
- Ki [16]: 79.4 µM (active)
- Ki [17]: 79.4 µM (active)

SMILES: COC(=O)C(Nc1nc(SCC(=O)NC2CCCCC2)nc2ccccc12)c1ccccc1 (stereo not given)
- CC50 [18]: > 100 µM (active)
- CC50 [19]: 70.9 µM (active)
- CC50 [20]: 73.2 µM (active)
- CC50 [21]: > 50 µM (active)
- CC50 [22]: 66 µM (active)
- CC50 [23]: 41.1 µM (active)
- CC50 [24]: 129 µM (active)

SMILES: C[C@@H]1CN([C@@H](C)CO)C(=O)c2cc(NC(=O)Cc3cn(C)c4ccccc34)ccc2O[C@H]1CN(C)S(=O)(=O)c1ccc(F)cc1
- AC50 [25]: 2.08 µM (active)

SMILES: CCOc1ccc(Oc2c(Br)nn(Cc3cccc4ccccc34)c(=O)c2Cl)cc1
- IC50 [26]: > 20 µM (inactive)
- IC50 [27]: 18.3 µM (inactive)

SMILES: O=C(Nc1cccc2[nH]ncc12)NC1CCc2c1cccc2N1CCCC1 (stereo not given)
- Ki [28]: 0.794 µM (active)
- Ki [29]: 2.51 µM (active)

SMILES: COc1ccc(-c2cc(=O)c3c(O)c(OC)c(OC)cc3o2)cc1O [EUPATORIN]
- Ki (Aurora kinase B): 0.0398 µM (active)
- Ki [30]: 0.794 µM (active)
- Ki (Aurora kinase A): 1 µM (active)
